Source: patent US10561739B2, “Targeted pyrrolobenzodiazapine conjugates” (priority 2010, dated 2020)

Key:
Type in all cases: cell-based
[1] = tested on: A2780 parental cell line; assay: A2780 assay (MTT cytotoxicity); conditions: Homo sapiens, 72 hours
Experimental: The A2780 parental cell line was grown in Dulbecco's Modified Eagles' Media (DMEM) containing ˜10% Foetal Calf Serum (FCS) and ˜1% 200 mM L-Glutamine solution and grown in Corning Cellbind 75 cm^2 flasks.
A 190 μl cell suspension was added (at 1×10^4) to each well of columns 2 to 11 of a 96 well plate (Nunc 96F flat bottom TC plate), 190 μl of media was added to each well of columns 1 and 12. The media was Dulbecco's Modified Eagles' Media (DMEM) (which included ˜10% Foetal Calf Serum (FCS) and ˜1% 200 mM L-Glutamine solution).
Plates were incubated overnight at 37° C. before addition of drug if cells were adherent, 200 μM of the test compound solutions (in 100% DMSO) were serially diluted across a 96 well plate. Each resulting point was then further diluted 1/10 into sterile distilled water (SDW).
To the cell negative blanks and compound negative control wells, 10% DMSO was added at 5% v/v. Assay plates were incubated for the following durations at 37° C. in 5% CO2 in a humidified incubator for 72 hours. Following incubation, MTT solution to a final concentration of 1.5 μM was added to each well. The plates were then incubated for a further 4 hours at 37° C. in 5% CO2 in a humidified incubator. […]
Plates were read at 540 nm absorbance using an Envision plate reader. Data was analysed using Microsoft Excel and GraphPad Prism and IC50 values obtained.

[2] = tested on: TF1a cells; assay: Free drug 48 hour Cell Titer Glo cytotoxicity, TF1a; conditions: TF-1a, Table 3, 48 hours, read-out: IC50 Summary for Free Drugs, TF1a
Experimental: (§1) Referring to the following Table 3, the activities of compounds 23, 25, are compared to that of compound 11 on 786-O, Caki-1, MCF-7, HL-60, THP-1, HEL, and TF1 cells. Cells were plated in 150 μL growth media per well into black-sided clear-bottom 96-well plates (Costar, Corning) and allowed to settle for 1 hour in the biological cabinet before placing in the incubator at 37° C., 5% CO2. The following day, 4× concentration of drug stocks were prepared, and then titrated as 10-fold serial dilutions producing 8-point dose curves and added at 50 μl per well in duplicate. Cells were then incubated for 48 hours at 37° C., 5% CO2. Cytotoxicity was measure by incubating with 100 μL Cell Titer Glo (Promega) solution for 1 hour, and then luminescence was measured on a Fusion HT plate reader (Perkin Elmer). Data was processed with Excel (Microsoft) and GraphPad (Prism) to produce dose response curves and IC50 values were generated and data collected.

[3] = tested on: THP-1 cells; assay: Free drug 48 hour Cell Titer Glo cytotoxicity, THP-1; conditions: Homo sapiens, Table 3, 48 hours, read-out: IC50 Summary for Free Drugs, THP-1
Experimental: as §1

[4] = tested on: HL-60 cells; assay: Free drug 48 hour Cell Titer Glo cytotoxicity, HL-60; conditions: Homo sapiens, Table 3, 48 hours, read-out: IC50 Summary for Free Drugs, HL-60
Experimental: as §1

[5] = tested on: 786-O cells; assay: Free drug 48 hour Cell Titer Glo cytotoxicity, 786-O; conditions: Homo sapiens, 786-0, Table 3, 48 hours, read-out: IC50 Summary for Free Drugs, 786-O
Experimental: as §1

[6] = tested on: MCF-7 cells; assay: Free drug 48 hour Cell Titer Glo cytotoxicity, MCF-7; conditions: Homo sapiens, MCF7, Table 3, 48 hours, read-out: IC50 Summary for Free Drugs, MCF-7
Experimental: as §1

[7] = tested on: HEL cells; assay: Free drug 48 hour Cell Titer Glo cytotoxicity, HEL; conditions: Homo sapiens, Table 3, 48 hours, read-out: IC50 Summary for Free Drugs, HEL
Experimental: as §1

[8] = tested on: Caki-1 cells; assay: Free drug 48 hour Cell Titer Glo cytotoxicity, Caki-1; conditions: Homo sapiens, Table 3, 48 hours, read-out: IC50 Summary for Free Drugs, Caki-1
Experimental: as §1

[9] = tested on: AML cell line HEL; assay: Free drug 96-hour resazurin cytotoxicity assay, HEL; conditions: Table 1, 96-hour assay, read-out: IC50 Summary for Free Drugs, HEL
Experimental: (§2) The cytotoxicity of various free drug compounds was tested on a renal cell cancer cell line, 786-O, a Hodgkin lymphoma cell line, L428 and two AML cell lines, HL60 and HEL.
(§3) For a 96-hour assay, cells cultured in log-phase growth were seeded for 24 h in 96-well plates containing 150 μL RPMI 1640 supplemented with 20% FBS. Serial dilutions of test article (i.e., free drug) in cell culture media were prepared at 4× working concentration; 50 μL of each dilution was added to the 96-well plates. Following addition of test article, the cells were incubated with test articles for 4 days at 37° C. Resazurin was then added to each well to achieve a 50 μM final concentration, and the plates were incubated for an additional 4 h at 37° C. The plates were then read for the extent of dye reduction on a Fusion HT plate reader (Packard Instruments, Meridien, Conn., USA) with excitation and emission wavelengths of 530 and 590 nm, respectively. The IC50 value, determined in triplicate, is defined here as the concentration that results in a 50% reduction in cell growth relative to untreated controls.

[10] = tested on: Hodgkin lymphoma cell line, L428; assay: Free drug 96-hour resazurin cytotoxicity assay, L428; conditions: Homo sapiens, L-428, Table 1, 96-hour assay, read-out: IC50 Summary for Free Drugs, L428
Experimental: as §2, §3

[11] = tested on: renal cell cancer cell line, 786-O; assay: Free drug 96-hour resazurin cytotoxicity assay, 786-O; conditions: Homo sapiens, 786-0, Table 1, 96-hour assay, read-out: IC50 Summary for Free Drugs, 786-O
Experimental: as §2, §3

[12] = tested on: AML cell line HL60; assay: Free drug 96-hour resazurin cytotoxicity assay, HL60; conditions: Homo sapiens, HL-60, Table 1, 96-hour assay, read-out: IC50 Summary for Free Drugs, HL60
Experimental: as §2, §3

[13] = tested on: MCF-7 cells; assay: Free drug cytotoxicity assay, MCF-7 (Table 2); conditions: Homo sapiens, MCF7; Table 2; read-out: IC50 Summary for Free Drugs, MCF-7
Experimental: as §3
Referring to the following Table 2, the activity of compounds 28, 30 and 32 is shown on L428, 786-O, HEL, HL-60 and MCF-7 cells, as well as the activity for compound 19 on MCF-7 cells.

Compound | IC50 [1] [nM] | IC50 [2] [nM] | IC50 [3] [nM] | IC50 [4] [nM] | IC50 [5] [nM] | IC50 [6] [nM] | IC50 [7] [nM] | IC50 [8] [nM] | IC50 [9] [nM] | IC50 [10] [nM] | IC50 [11] [nM] | IC50 [12] [nM] | IC50 [13] [nM]
COc1ccc(C2=CN3C(=O)c4cc(OC)c(OCCCOc5cc6c(cc5OC)C(=O)N5C=C(c7ccc(N)cc7)C[C@H]5C=N6)cc4N=C[C@@H]3C2)cc1 [Compound 11, (S)-2-(4-aminophenyl)-7-methoxy-8-(3-((S)-7-methoxy-2-(4-methoxyphenyl)-5-oxo-5,11a-dihydro-1H-pyrrolo[2,1-c][1,4]benzodiazepine-8-yloxy)propoxy)-1H-pyrrolo[2,1-c][1,4]benzodiazepine-5(11aH)-one] | 11700 | 1 | 1 | 0.01 | 0.4 | 1 | 0.03 | 0.2 | – | – | – | – | –
COc1ccc(C2=CN3C(=O)c4cc(OC)c(OCCCOc5cc6c(cc5OC)C(=O)N5C=C(c7cccc(N)c7)C[C@H]5C=N6)cc4N=C[C@@H]3C2)cc1 [Compound 19, (S)-2-(3-aminophenyl)-7-methoxy-8-(3-((S)-7-methoxy-2-(4-methoxyphenyl)-5-oxo-5,11a-dihydro-1H-pyrrolo[2,1-c][1,4]benzodiazepine-8-yloxy)propyloxy)-1H-pyrrolo[2,1-c][1,4]benzodiazepine-5(11aH)-one] | – | – | – | – | – | – | – | – | 0.2 | 1 | 0.5 | 0.6 | 5
